The record followed here is patent US20250188044A1 (HARBIN MEDISAN PHARMACEUTICAL CO., LTD., priority 2021, published 2025).

Molecules are shown by their SMILES. Read-outs that look alike come from different tables or passages of the source.

Type in all cases: cell-based
One assay deals with T1, PPARα (Homo sapiens, UniProt Q07869).
T1 construct: hPPARα (279aa-580aa); expressed in transfected cells; host or cells: Cos-7
T1 sequence (Q07869 167-468 limits assumed): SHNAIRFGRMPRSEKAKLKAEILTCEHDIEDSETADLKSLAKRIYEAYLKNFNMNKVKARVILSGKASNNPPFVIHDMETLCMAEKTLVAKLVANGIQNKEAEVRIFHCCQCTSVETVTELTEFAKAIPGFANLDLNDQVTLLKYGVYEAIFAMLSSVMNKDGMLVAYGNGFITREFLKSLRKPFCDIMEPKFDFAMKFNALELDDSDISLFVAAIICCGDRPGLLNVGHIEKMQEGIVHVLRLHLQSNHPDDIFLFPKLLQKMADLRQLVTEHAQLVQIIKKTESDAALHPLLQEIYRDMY
As to the kind of experiment: Gal4-PPARα(LBD) reporter gene agonistic activity assay in Cos-7 cells. The conditions noted are these: for EC50: Cos-7 cells, Gal4-PPARα(LBD) reporter, 16 h, 100% = GW7647 10 nM; for agonistic activity for PPARα (EC50 level, in words): Cos-7 reporter assay. How it is done: (§1) Cos-7 cells (African green monkey kidney fibroblasts, commonly used tool cells) were cultured in a 10 cm cell culture dish in a DMEM complete medium containing 10% fetal bovine serum. When the cells grew to a density of about 70%, the medium was replaced with a fresh medium for later transfection. […] The plasmid working solution was then added to the cell culture dish for cell transfection. […] Test compounds were prepared into appropriate test concentrations with a complete medium and then added to the 96-well plate. […] 10 μL of lysate was pipetted into a white opaque 384-well plate, and then 10 μL of reporter gene assay buffer (purchased from Shanghai Beyotime Biological Tech. Co., Ltd.) was added. The bioluminescence was detected by using a multimode microplate reader, and the corresponding half maximal effective concentration (EC50) value was calculated according to the detection value.

A further assay concerns the target T2, PPARγ (Homo sapiens, UniProt P37231).
T2 construct: hPPARγ (281aa-554aa); expressed in transfected cells; host or cells: Cos-7
T2 sequence (P37231 232-505 limits assumed): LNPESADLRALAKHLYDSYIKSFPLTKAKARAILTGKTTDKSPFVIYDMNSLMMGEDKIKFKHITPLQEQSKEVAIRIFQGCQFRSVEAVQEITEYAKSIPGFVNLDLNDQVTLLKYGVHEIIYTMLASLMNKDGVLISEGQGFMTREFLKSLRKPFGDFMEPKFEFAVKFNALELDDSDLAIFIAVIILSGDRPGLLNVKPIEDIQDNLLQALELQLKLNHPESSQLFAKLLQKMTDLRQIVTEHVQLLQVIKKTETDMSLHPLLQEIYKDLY
Nature of the assay: Gal4-PPARγ(LBD) reporter gene agonistic activity assay in Cos-7 cells. The protocol: as §1

In a further assay the target is T3, PPARδ (Homo sapiens, UniProt Q03181).
T3 construct: expressed in transfected cells; host or cells: Cos-7
T3 sequence (Q03181 139-441 limits assumed): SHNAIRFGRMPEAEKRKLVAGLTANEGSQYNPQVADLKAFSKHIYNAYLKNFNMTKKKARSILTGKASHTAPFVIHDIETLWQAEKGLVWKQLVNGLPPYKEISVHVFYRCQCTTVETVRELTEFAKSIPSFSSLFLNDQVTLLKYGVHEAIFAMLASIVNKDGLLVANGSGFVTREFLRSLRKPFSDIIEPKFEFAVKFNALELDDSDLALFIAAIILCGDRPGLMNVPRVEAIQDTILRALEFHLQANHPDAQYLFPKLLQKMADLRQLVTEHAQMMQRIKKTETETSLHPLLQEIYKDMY
As to the kind of experiment: Gal4-PPARδ(LBD) reporter gene agonistic activity assay in Cos-7 cells. The conditions noted are these: for agonistic activity for PPARδ (EC50 level, in words): Cos-7 reporter assay. How it is done:
as §1

[1] abbreviates: Cos-7 cells, Gal4-PPARδ(LBD) reporter, 16 h, 100% = GW501516 10 nM.
Setting [2] is: Cos-7 cells, Gal4-PPARγ(LBD) reporter, 16 h, 100% = Rosiglitazone 1 μM.

For the molecule `Cc1cc(Cn2ncn(-c3ccccc3)c2=O)cc(C)c1OC(C)(C)C(=O)O` [Compound 63, 2-(2,6-Dimethyl-4-((5-oxo-4-phenyl-4,5-dihydro-1H-1,2,4-triazol-1-yl)methyl)phenoxy)-2-methylpropionic acid], the EC50 (in general, the concentration at which the effect is half-maximal) was found to be 1030 nM at PPARα and 8650 nM at PPARγ.
Consider `CCOc1ccc(-n2cnn(Cc3cc(C)c(OC(C)(C)C(=O)O)c(C)c3)c2=O)cc1` [Compound 69, 2-(4-((4-(4-Ethoxyphenyl)-5-oxo-4,5-dihydro-1H-1,2,4-triazol-1-yl)methyl)-2,6-dimethylphenoxy)-2-methylpropionic acid], for which the EC50 on PPARδ (setting [1]) is 481 nM; at PPARα it was 33 nM.
The matching figures for `Cc1cc(Cn2ncn(-c3ccc(C(F)(F)F)cc3)c2=O)ccc1OC(C)(C)C(=O)O` [Compound 77, 2-Methyl-2-(2-methyl-4-((5-oxo-4-(4-(trifluoromethyl)phenyl)-4,5-dihydro-1H-1,2,4-triazol-1-yl)methyl)phenoxy)propionic acid]: 132 nM and 103 nM.
With `Cc1cc(Cn2ncn(-c3ccc(F)cc3)c2=O)cc(C)c1OC(C)(C)C(=O)O` [Compound 109, 2-(4-((4-(4-Fluorophenyl)-5-oxo-4,5-dihydro-1H-1,2,4-triazol-1-yl)methyl)-2,6-dimethylphenoxy)-2-methylpropionic acid], the figures for the 50% effective concentration (EC50) at PPARδ (setting [1]) and on PPARα were 389 nM and 645 nM, respectively.
The molecule `Cc1cc(Cn2ncn(-c3ccc(-c4ccccc4)cc3)c2=O)cc(C)c1OC(C)(C)C(=O)O` [Compound 117, 2-(4-((4-([1,1′-Biphenyl]-4-yl)-5-oxo-4,5-dihydro-1H-1,2,4-triazol-1-yl)methyl)-2,6-dimethylphenoxy)-2-methylpropionic acid] registered an EC50 at PPARδ (setting [1]) of 135 nM.
Consider `Cc1cc(Cn2ncn(-c3cccc(C(F)(F)F)c3)c2=O)cc(C)c1OC(C)(C)C(=O)O` [Compound 121, 2-(2,6-Dimethyl-4-((5-oxo-4-(3-(trifluoromethyl)phenyl)-4,5-dihydro-1H-1,2,4-triazol-1-yl)methyl)phenoxy)-2-methylpropionic acid], for which the EC50 on PPARδ (setting [1]) was found to be 39 nM.
On to `CC(C)(Oc1ccc(Cn2ncn(-c3ccc(C(F)(F)F)cc3)c2=O)cc1F)C(=O)O` [Compound 123, 2-(2-Fluoro-4-((5-oxo-4-(4-(trifluoromethyl)phenyl)-4,5-dihydro-1H-1,2,4-triazol-1-yl)methyl)phenoxy)-2-methylpropionic acid], for which the EC50 on PPARδ (setting [1]) stood at 664 nM; on PPARα, 394 nM.
On to `CC(C)(Oc1c(F)cc(Cn2ncn(-c3ccc(C(F)(F)F)cc3)c2=O)cc1F)C(=O)O` [Compound 127, 2-(2,6-Difluoro-4-((5-oxo-4-(4-(trifluoromethyl)phenyl)-4,5-dihydro-1H-1,2,4-triazol-1-yl)methyl)phenoxy)-2-methylpropionic acid], for which the midpoint of the response at PPARδ (setting [1]), the EC50, lay at 586 nM.
At PPARδ (setting [1]), `CC(C)(Oc1ccc(Cn2ncn(-c3ccc(C(F)(F)F)cc3)c2=O)cc1)C(=O)O` [Compound 137, 2-(4-((4-(4-Trifluoromethylphenyl)-5-oxo-4,5-dihydro-1H-1,2,4-triazol-1-yl)methyl)phenoxy)-2-methylpropionic acid] displayed a 50% effective concentration (EC50) of 1520 nM.
Take `Cc1cc(Cn2ncn(-c3ccc(OC(F)(F)F)cc3)c2=O)cc(Cl)c1OC(C)(C)C(=O)O` [Compound 145, 2-(2-Chloro-6-methyl-4-((5-oxo-4-(4-(trifluoromethoxy)phenyl)-4,5-dihydro-1H-1,2,4-triazol-1-yl)methyl)phenoxy)-2-methylpropionic acid]: at PPARδ, the response was half-maximal at 29 nM (EC50) and the “agonistic activity for PPARδ (EC50 level, in words)” value (from here on “agonistic activity for PPARδ”) is on record as “at nanomolar levels”. In addition, at PPARα, the response was half-maximal at 8 nM (EC50) and the “agonistic activity for PPARα (EC50 level, in words)” value (shortened to “agonistic activity for PPARα”) is “at nanomolar levels”.
For the molecule `CC(C)(Oc1ccc(Cn2ncn(-c3ccc(C(F)(F)F)cc3)c2=O)cc1C(F)(F)F)C(=O)O` [Compound 147], the 50% effective concentration (EC50) amounted to 81 nM on PPARδ (setting [1]) and 1800 nM at PPARγ (setting [2]).
Regarding `CC(C)(Oc1c(Cl)cc(Cn2ncn(-c3ccc(OC(F)(F)F)cc3)c2=O)cc1Cl)C(=O)O` [Compound 149, 2-(2,6-Dichloro-4-((5-oxo-4-(4-(trifluoromethoxy)phenyl)-4,5-dihydro-1H-1,2,4-triazo 1-1-yl)methyl)phenoxy)-2-methylpropionic acid], the EC50 on PPARδ (setting [1]) came out at 225 nM; at PPARα, 7 nM.
Take `CC(C)(Oc1ccc(Cn2ncn(-c3ccc(OC(F)(F)F)cc3)c2=O)cc1F)C(=O)O` [Compound 151, 2-(2-Fluoro-4-((5-oxo-4-(4-(trifluoromethoxy)phenyl)-4,5-dihydro-1H-1,2,4-triazol-1-yl)methyl)phenoxy)-2-methylpropionic acid]: the EC50 worked out at 914 nM on PPARδ (setting [1]) and 220 nM on PPARα.
The matching figures for `CC(C)(Oc1ccc(Cn2ncn(-c3ccc(OC(F)(F)F)cc3)c2=O)cc1)C(=O)O` [Compound 153, 2-Methyl-2-(4-((5-oxo-4-(4-(trifluoromethoxy)phenyl)-4,5-dihydro-1H-1,2,4-triazol-1-yl)methyl)phenoxy)propionic acid]: 1680 nM and 498 nM.
The matching figures for `CC(C)(Oc1c(F)cc(Cn2ncn(-c3ccc(OC(F)(F)F)cc3)c2=O)cc1F)C(=O)O` [Compound 155, 2-(2,6-Difluoro-4-((5-oxo-4-(4-(trifluoromethoxy)phenyl)-4,5-dihydro-1H-1,2,4-triazol-1-yl)methyl)phenoxy)-2-methylpropionic acid]: 1370 nM and 351 nM.
For `[2H]C([2H])(c1cc(C)c(OC(C)(C)C(=O)O)c(C)c1)n1ncn(-c2ccc(C(F)(F)F)cc2)c1=O` [Compound 187, 2-(2,6-Dimethyl-4-((5-oxo-4-(4-(trifluoromethyl)phenyl)-4,5-dihydro-1H-1,2,4-triazol-1-yl)methyl-d2)phenoxy)-2-methylpropionic acid], at PPARδ, the EC50 came to 7 nM and the “agonistic activity for PPARδ” value was “at nanomolar levels”. Moreover, at PPARα, a half-maximal effect (EC50) was put at 10 nM and the “agonistic activity for PPARα” value is “at nanomolar levels”.
As to `CCc1cc(Cn2ncn(-c3ccc(C(F)(F)F)cc3)c2=O)cc(CC)c1OC(C)(C)C(=O)O` [Compound 191, 2-(2,6-Diethyl-4-((5-oxo-4-(4-(trifluoromethyl)phenyl)-4,5-dihydro-1H-1,2,4-triazol-1-yl)methyl)phenoxy)-2-methylpropionic acid], it took 42 nM to reach a half-maximal effect at PPARδ (setting [1]) (EC50). The “agonistic activity for PPARδ” value on PPARδ is reported as “at nanomolar levels”. At PPARα, the EC50 amounted to 44 nM and the “agonistic activity for PPARα” value was “at nanomolar levels”.
Turning to `Cc1cc(CCn2ncn(-c3ccc(C(F)(F)F)cc3)c2=O)cc(C)c1OC(C)(C)C(=O)O` [Compound 194, 2-(2,6-Dimethyl-4-(2-(5-oxo-4-(4-(trifluoromethyl)phenyl)-4,5-dihydro-1H-1,2,4-triazol-1-yl)ethyl)phenoxy)-2-methylpropionic acid], the 50% effective concentration (EC50) on PPARδ (setting [1]) worked out at 38 nM; on PPARγ (setting [2]), 2020 nM. Further, the “agonistic activity for PPARδ” value on PPARδ was “at nanomolar levels”.
With `Cc1cc(OCn2ncn(-c3ccc(C(F)(F)F)cc3)c2=O)cc(C)c1OC(C)(C)C(=O)O` [Compound 196, 2-(2,6-Dimethyl-4-((5-oxo-4-(4-(trifluoromethyl)phenyl)-4,5-dihydro-1H-1,2,4-triazol-1-yl)methoxy)phenoxy)-2-methylpropionic acid], the EC50 at PPARδ (setting [1]) stood at 56 nM; on PPARα, 86 nM.
Regarding `Cc1cc(CCCn2ncn(-c3ccc(C(F)(F)F)cc3)c2=O)cc(C)c1OC(C)(C)C(=O)O` [Compound 200, 2-(2,6-Dimethyl-4-(3-(5-oxo-4-(4-(trifluoromethyl)phenyl)-4,5-dihydro-1H-1,2,4-triazol-1-yl)propyl)phenoxy)-2-methylpropionic acid], the half-maximal effective concentration (EC50) was 212 nM at PPARδ (setting [1]) and 134 nM at PPARα.
